IC50 data for 35 molecules are collected here from patent publication US20070027150A1 (priority 2005, published 2007).

The first assay concerns the target His-tagged N-terminal ATP binding domain (amino acid residues 9-236) of HSP90α (Homo sapiens, UniProt P07900). Put plainly: HSP90 inhibitor binding potency: TRF competition binding assay. To be noted: Table I; read-out: Hsp90 IC50 Range. As to the method:
HSP90 Inhibitor Binding Potency: TRF Binding Assay
In this example, the binding potency of HSP90 inhibitors as measured by a TRF binding assay is described.
TRF competition binding assays were performed to determine the binding potency (IC50 values) of HSP90 inhibitors. Purified His-tagged N-terminal ATP binding domain (amino acid residues 9-236) of HSP90α (HSP90α GeneID: 3320; mRNA Sequence NM_005348) was incubated for two hours at room temperature in binding buffer (50 mM HEPES, 6 mM MgCl2, 20 mM KCl and 0.1% BSA) with biotinylated radicicol and progressively higher concentrations of the competing compounds. A fraction of the mixture was transferred to capture plates (coated with streptavidin) and incubated for one hour at room temperature. After washing with DELFIA wash buffer, europium-labeled anti-his antibody was added and incubated for two hours at room temperature, followed by washing with DELFIA buffer. DELFIA enhancement solution was then added. After gentle shaking for 10 minutes, the plates were read in VICTOR for europium counts.
As to `Cc1ccc(Oc2ccccc2C2CC(=O)c3c(C)nc(N)nc3C2)cc1` (centres unmarked) [Compound 136, 2-amino-4-methyl-7-[2-(4-methylphenoxy)phenyl]-7,8-dihydroquinazolin-5(6H)-one], the IC50 (as a rule, the concentration needed to halve the response being measured) is more than 10 µM.

For `COc1ncccc1-c1ccccc1C1CC(=O)c2c(C)nc(N)nc2C1` (centres unmarked) [Compound 70, 2-amino-7-[2-(2-methoxypyridin-3-yl)phenyl]-4-methyl-7,8-dihydroquinazolin-5(6H)-one], the IC50 is less than 1 µM.

As for `Cc1nc(N)nc2c1C(=O)CC(c1ccc(F)cc1-c1ccccc1F)C2` (centres unmarked) [Compound 86, 2-amino-7-(5,2′-difluoro-biphenyl-2-yl)-4-methyl-7,8-dihydro-6H-quinazolin-5-one], the IC50 was less than 1 µM.

`COc1cccc(-c2ccccc2CO)c1C1CC(=O)c2c(C)nc(N)nc2C1` (centres unmarked) [Compound 105, 2-amino-7-[2′-(hydroxymethyl)-3-methoxy-1,1′-biphenyl-2-yl]-4-methyl-7,8-dihydroquinazolin-5(6H)-one]: the IC50 was less than 1 µM.

Consider `COc1ccc(-c2ccccc2C2CC(=O)c3c(C)nc(N)nc3C2)cn1` (centres unmarked) [Compound 74, 2-amino-7-[2-(6-methoxypyridin-3-yl)phenyl]-4-methyl-7,8-dihydroquinazolin-5(6H)-one], for which the IC50 is 1 to 10 µM.

As for `Cc1nc(N)nc2c1C(=O)CC(c1ccccc1-c1ccnc(Cl)c1)C2` (centres unmarked) [Compound 82, 2-amino-7-[2-(2-chloropyridin-4-yl)phenyl]-4-methyl-7,8-dihydroquinazolin-5(6H)-one], the IC50 lay within 1 to 10 µM.

For the molecule `CC(=O)Nc1ccccc1-c1ccccc1C1CC(=O)c2c(C)nc(N)nc2C1` (centres unmarked) [Compound 103, N-[2′-(2-amino-4-methyl-5-oxo-5,6,7,8-tetrahydroquinazolin-7-yl)-1,1′-biphenyl-2-yl]acetamide], the IC50 was in the range of 1 to 10 µM.

Turning to `Cc1nc(N)nc2c1C(=O)CC(c1ccccc1Br)C2` (centres unmarked) [Compound 8, 2-amino-7-(2-bromophenyl)-4-methyl-7,8-dihydroquinazolin-5(6H)-one], the concentration for half-maximal inhibition (IC50) lay in the range of 1 to 10 µM.

For the molecule `Cc1ccc(-c2ccccc2C2CC(=O)c3c(C)nc(N)nc3C2)nc1` (centres unmarked) [Compound 117, 2-amino-4-methyl-7-[2-(5-methylpyridin-2-yl)phenyl]-7,8-dihydroquinazolin-5(6H)-one], the IC50 is less than 1 µM.

Regarding `Cc1ccccc1Oc1ccccc1C1CC(=O)c2c(C)nc(N)nc2C1` (centres unmarked) [Compound 134, 2-amino-4-methyl-7-[2-(2-methylphenoxy)phenyl]-7,8-dihydroquinazolin-5(6H)-one], the IC50 is less than 1 µM.

`Cc1nc(N)nc2c1C(=O)CC(c1ccccc1Nc1ccccc1)C2` (centres unmarked) [Compound 164, 2-amino-4-methyl-7-(2-phenylamino-phenyl)-7,8-dihydro-6H-quinazolin-5-one]: the IC50 is less than 1 µM.

Regarding `CC(=O)c1cccc(-c2ccccc2C2CC(=O)c3c(C)nc(N)nc3C2)n1` (centres unmarked) [Compound 92, 7-[2-(6-acetylpyridin-2-yl)phenyl]-2-amino-4-methyl-7,8-dihydroquinazolin-5(6H)-one], the IC50 was 1 to 10 µM.

Take `Cc1nc(N)nc2c1C(=O)CC(c1ccccc1Oc1ccc(F)cc1)C2` (centres unmarked) [Compound 139, 2-amino-7-[2-(4-fluorophenoxy)phenyl]-4-methyl-7,8-dihydroquinazolin-5(6H)-one]: the IC50 is 1 to 10 µM.

As for `Cc1nc(N)nc2c1C(=O)CC(c1ccccc1CCc1ccccc1)C2` (centres unmarked) [Compound 162, 2-amino-4-methyl-7-[2-(2-phenylethyl)phenyl]-7,8-dihydroquinazolin-5(6H)-one], the half-inhibitory concentration (IC50) is more than 10 µM.

Consider `Cc1nc(N)nc2c1C(=O)CC(c1ccccc1-c1nccs1)C2` (centres unmarked) [Compound 35, 2-amino-4-methyl-7-[2-(1,3-thiazol-2-yl)phenyl]-7,8-dihydroquinazolin-5(6H)-one], for which the IC50 was less than 1 µM.

With `Cc1nc(N)nc2c1C(=O)CC(c1ccccc1-c1cccc(F)c1F)C2` (centres unmarked) [Compound 83, 2-amino-7-(2′,3′-difluoro-1,1′-biphenyl-2-yl)-4-methyl-7,8-dihydroquinazolin-5(6H)-one], the IC50 is less than 1 µM.

Regarding `Cc1nc(N)nc2c1C(=O)CC(c1ccccc1OC1CCCC1)C2` (centres unmarked) [Compound 150, 2-amino-7-(2-cyclopentyloxy-phenyl)-4-methyl-7,8-dihydro-6H-quinazolin-5-one], the IC50 was less than 1 µM.

Consider `Cc1ccc(-c2ccccc2C2CC(=O)c3c(C)nc(N)nc3C2)c(F)c1` (centres unmarked) [Compound 77, 2-amino-7-(2′-fluoro-4′-methyl-1,1′-biphenyl-2-yl)-4-methyl-7,8-dihydroquinazolin-5(6H)-one], for which the IC50 was less than 1 µM.

For the molecule `COc1cccc(-c2cccnc2F)c1C1CC(=O)c2c(C)nc(N)nc2C1` (centres unmarked) [Compound 97, 2-amino-7-[2-(2-fluoropyridin-3-yl)-6-methoxyphenyl]-4-methyl-7,8-dihydroquinazolin-5(6H)-one], the IC50 is less than 1 µM.

For `COc1cccc(-c2cc(F)ccc2C2CC(=O)c3c(C)nc(N)nc3C2)n1` (centres unmarked) [Compound 130, 2-amino-7-[4-fluoro-2-(6-methoxy-pyridin-2-yl)-phenyl]-4-methyl-7,8-dihydro-6H-quinazolin-5-one], the IC50 was less than 1 µM.

Still in this assay, the particulars now being: Table II; read-out: Hsp90 IC50 Range.
As for `COc1cccc(-c2scnc2[C@H]2CC(=O)c3c(C)nc(N)nc3C2)n1` [Compound 297, (R)-2-amino-7-[5-(6-methoxy-pyridin-2-yl)-thiazol-4-yl]-4-methyl-7,8-dihydro-6H-quinazolin-5-one], the IC50 lay in the range of 1 to 10 µM.

As to `Cc1ccc(F)c(-c2scnc2C2CC(=O)c3c(C)nc(N)nc3C2)c1` (centres unmarked) [Compound 293, 2-amino-7-[5-(2-fluoro-5-methyl-phenyl)-thiazol-4-yl]-4-methyl-7,8-dihydro-6H-quinazolin-5-one], the IC50 is less than 1 µM.

Consider `COc1nc(-n2ccnc2C2CC(=O)c3c(C)nc(N)nc3C2)ncc1C` (centres unmarked) [Compound 206, 2-amino-7-[1-(4-methoxy-5-methyl-pyrimidin-2-yl)-1H-imidazol-2-yl]-4-methyl-7,8-dihydro-6H-quinazolin-5-one], for which the IC50 is less than 1 µM.

Regarding `Cc1nc(N)nc2c1C(=O)CC(c1ccc(Cl)cc1-c1cncnc1)C2` (centres unmarked) [Compound 250, 2-amino-7-(4-chloro-2-pyrimidin-5-yl-phenyl)-4-methyl-7,8-dihydro-6H-quinazolin-5-one], the IC50 is less than 1 µM.

As for `COc1nc(-c2cc(F)ccc2C2CC(=O)c3c(C)nc(N)nc3C2)cnc1F` (centres unmarked) [Compound 233, 2-amino-7-[4-fluoro-2-(5-fluoro-6-methoxy-pyrazin-2-yl)-phenyl]-4-methyl-7,8-dihydro-6H-quinazolin-5-one], the IC50 was less than 1 µM.

As to `COc1ccc(F)c(-n2ccnc2C2CC(=O)c3c(C)nc(N)nc3C2)c1` (centres unmarked) [Compound 196, 2-amino-7-[1-(2-fluoro-5-methoxy-phenyl)-1H-imidazol-2-yl]-4-methyl-7,8-dihydro-6H-quinazolin-5-one], the IC50 fell in the range of 1 to 10 µM.

Regarding `CCOc1ncncc1-c1cc(F)ccc1C1CC(=O)c2c(C)nc(N)nc2C1` (centres unmarked) [Compound 282, 2-amino-7-[2-(4-ethoxy-pyrimidin-5-yl)-4-fluoro-phenyl]-4-methyl-7,8-dihydro-6H-quinazolin-5-one], the IC50 is less than 1 µM.

With `COc1nc(Cl)ncc1-c1cc(F)ccc1C1CC(=O)c2c(C)nc(N)nc2C1` (centres unmarked) [Compound 273, 2-amino-7-[2-(2-chloro-4-methoxy-pyrimidin-5-yl)-4-fluoro-phenyl]-4-methyl-7,8-dihydro-6H-quinazolin-5-one], the concentration for half-maximal inhibition (IC50) was less than 1 µM.

Turning to `COc1ncccc1-c1ccc(F)cc1C1CC(=O)c2c(C)nc(N)nc2C1` (centres unmarked) [Compound 285, 2-amino-7-[5-fluoro-2-(2-methoxy-pyridin-3-yl)-phenyl]-4-methyl-7,8-dihydro-6H-quinazolin-5-one], the IC50 is less than 1 µM.

Take `CCc1nc(N)nc2c1C(=O)CC(c1ccc(F)cc1-c1cccnc1OC)C2` (centres unmarked) [Compound 317, 2-amino-4-ethyl-7-[4-fluoro-2-(2-methoxy-pyridin-3-yl)-phenyl]-7,8-dihydro-6H-quinazolin-5-one]: the IC50 fell in the range of 1 to 10 µM.

In the case of `Cc1nc(N)nc2c1C(=O)CC(c1ccccc1)C2NC(=O)c1ccccc1` (centres unmarked) [Compound 242, N-(2-amino-4-methyl-5-oxo-7-phenyl-5,6,7,8-tetrahydro-quinazolin-8-yl)-benzamide], the IC50 was more than 10 µM.

On to `COc1nc(-c2cc(F)ccc2[C@H]2CC(=O)c3c(C)nc(N)nc3C2)ncc1Cl` [Compound 299, (R)-2-amino-7-[2-(5-chloro-4-methoxy-pyrimidin-2-yl)-4-fluoro-phenyl]-4-methyl-7,8-dihydro-6H-quinazolin-5-one], for which the concentration for half-maximal inhibition (IC50) was less than 1 µM.

Take `COc1nc(-c2cc(F)ccc2[C@H]2CC(=O)c3c(C)nc(N)nc3C2)ncc1C` [Compound 274, (R)-2-amino-7-[4-fluoro-2-(4-methoxy-5-methyl-pyrimidin-2-yl)-phenyl]-4-methyl-7,8-dihydro-6H-quinazolin-5-one]: the IC50 is less than 1 µM.

As for `Cc1ccc(-n2ccnc2C2CC(=O)c3c(C)nc(N)nc3C2)c(F)c1` (centres unmarked) [Compound 329, 2-amino-7-[1-(2-fluoro-4-methyl-phenyl)-1H-imidazol-2-yl]-4-methyl-7,8-dihydro-6H-quinazolin-5-one], the half-inhibitory concentration (IC50) lay in the range of 1 to 10 µM.

Take `COc1nc(-c2cc(F)ccc2C2CC(=O)c3c(C)nc(N)nc3C2)ncc1Cl` (centres unmarked) [Compound 272, 2-amino-7-[2-(5-chloro-4-methoxy-pyrimidin-2-yl)-4-fluoro-phenyl]-4-methyl-7,8-dihydro-6H-quinazolin-5-one]: the IC50 is less than 1 µM.
